This is an account of results in ChEMBL document CHEMBL4011587, “Design, synthesis and evaluation of novel ferulic acid-O-alkylamine derivatives as potential multifunctional agents for the treatment of Alzheimer's disease” (Eur J Med Chem, 2017).

Each structure is given as a SMILES string.

The target in experiment [1] is T1, Acetylcholinesterase (Rattus norvegicus, UniProt P37136).
T1 sequence (P37136 whole entry): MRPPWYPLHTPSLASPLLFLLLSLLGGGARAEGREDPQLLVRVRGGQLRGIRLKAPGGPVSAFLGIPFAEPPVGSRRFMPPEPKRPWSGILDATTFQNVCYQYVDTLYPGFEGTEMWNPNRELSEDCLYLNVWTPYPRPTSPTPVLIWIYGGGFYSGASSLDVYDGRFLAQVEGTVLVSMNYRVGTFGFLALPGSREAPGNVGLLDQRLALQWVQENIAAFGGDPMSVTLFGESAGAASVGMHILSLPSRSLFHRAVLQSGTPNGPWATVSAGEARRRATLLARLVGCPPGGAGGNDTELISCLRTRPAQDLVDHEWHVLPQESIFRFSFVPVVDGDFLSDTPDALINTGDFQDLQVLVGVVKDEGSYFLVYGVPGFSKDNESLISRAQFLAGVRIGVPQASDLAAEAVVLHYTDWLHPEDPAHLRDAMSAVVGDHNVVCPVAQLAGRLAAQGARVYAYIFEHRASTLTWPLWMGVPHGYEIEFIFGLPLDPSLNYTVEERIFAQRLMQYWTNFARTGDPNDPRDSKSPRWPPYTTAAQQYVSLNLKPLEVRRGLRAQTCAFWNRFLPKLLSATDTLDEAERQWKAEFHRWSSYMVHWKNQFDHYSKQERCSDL
The experiment can be described thus: Inhibition of AChE in rat cortex homogenates using acetylthiocholine chloride as substrate measured after 15 mins by Ellman's method. The class given is ADME.

The target of experiment [2] is T2, Acetylcholinesterase (Electrophorus electricus, UniProt O42275). The experiment in a line: Inhibition of electric eel AChE using acetylthiocholine chloride as substrate measured after 15 mins by Ellman's method. The class given is ADME. On the technique in general: Ellman's reagent forms a yellow product with free thiols.
In experiment [3] the target is Amyloid-beta precursor protein (Homo sapiens) (UniProt P05067). The experiment in a line: Inhibition of amyloid beta (1 to 42) (unknown origin) self-aggregation at 25 uM after 24 hrs by thioflavin-T fluorescence assay relative to control.
The nature of experiment [4]: Inhibition of BuChE in rat serum using butyrylthiocholine chloride as substrate measured after 15 mins by Ellman's method. As to conditions: 0.25 h.
Experiment [5] in a line: Antioxidant activity assessed as inhibition of AAPH-induced peroxyl radical generation measured as trolox equivalent at 1 to 10 uM preincubated for 15 mins followed by AAPH addition measured every minute for 90 mins by ORAC-FL assay. The format is functional.
Experiment [6] concerns the target Cholinesterase (Equus caballus, UniProt P81908). The experiment can be described thus: Inhibition of equine serum BuChE using butyrylthiocholine chloride as substrate measured after 15 mins by Ellman's method.
Experiment [7] is described as follows: Selectivity index, ratio of IC50 for electric eel AChE to IC50 for equine serum BuChE.
For experiment [8], the target named is T1, Acetylcholinesterase. The experiment can be described thus: Inhibition of AChE in rat cortex homogenates at 25 umol/l using acetylthiocholine chloride as substrate measured after 15 mins by Ellman's method. As to conditions: 0.25 h.
In experiment [9] the target is T2, Acetylcholinesterase. The experiment can be described thus: Inhibition of electric eel AChE at 25 uM using acetylthiocholine chloride as substrate measured after 15 mins by Ellman's method relative to control. As to conditions: 0.25 h.

Sequence of Amyloid-beta precursor protein (Homo sapiens) (P05067 whole entry): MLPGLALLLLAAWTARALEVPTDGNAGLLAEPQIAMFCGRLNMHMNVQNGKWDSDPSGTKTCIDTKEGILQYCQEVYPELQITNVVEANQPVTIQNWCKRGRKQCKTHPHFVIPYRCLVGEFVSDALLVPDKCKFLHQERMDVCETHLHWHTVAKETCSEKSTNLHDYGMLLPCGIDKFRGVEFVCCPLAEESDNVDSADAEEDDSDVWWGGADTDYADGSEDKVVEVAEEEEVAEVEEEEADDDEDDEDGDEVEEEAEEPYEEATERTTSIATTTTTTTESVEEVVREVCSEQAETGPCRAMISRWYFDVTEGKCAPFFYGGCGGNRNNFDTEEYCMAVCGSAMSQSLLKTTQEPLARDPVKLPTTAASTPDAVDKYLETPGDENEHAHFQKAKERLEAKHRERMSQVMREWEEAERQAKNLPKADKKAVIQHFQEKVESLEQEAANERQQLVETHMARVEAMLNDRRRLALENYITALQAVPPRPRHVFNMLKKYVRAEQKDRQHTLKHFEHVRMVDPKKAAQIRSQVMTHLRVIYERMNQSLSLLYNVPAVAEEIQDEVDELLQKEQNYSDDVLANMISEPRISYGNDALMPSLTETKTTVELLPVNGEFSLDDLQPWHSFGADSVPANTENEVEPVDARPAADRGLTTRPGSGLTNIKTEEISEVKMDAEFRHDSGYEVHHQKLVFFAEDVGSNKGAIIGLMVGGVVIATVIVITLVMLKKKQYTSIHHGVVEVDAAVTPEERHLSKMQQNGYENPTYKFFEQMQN
Sequence of Cholinesterase (P81908 whole entry): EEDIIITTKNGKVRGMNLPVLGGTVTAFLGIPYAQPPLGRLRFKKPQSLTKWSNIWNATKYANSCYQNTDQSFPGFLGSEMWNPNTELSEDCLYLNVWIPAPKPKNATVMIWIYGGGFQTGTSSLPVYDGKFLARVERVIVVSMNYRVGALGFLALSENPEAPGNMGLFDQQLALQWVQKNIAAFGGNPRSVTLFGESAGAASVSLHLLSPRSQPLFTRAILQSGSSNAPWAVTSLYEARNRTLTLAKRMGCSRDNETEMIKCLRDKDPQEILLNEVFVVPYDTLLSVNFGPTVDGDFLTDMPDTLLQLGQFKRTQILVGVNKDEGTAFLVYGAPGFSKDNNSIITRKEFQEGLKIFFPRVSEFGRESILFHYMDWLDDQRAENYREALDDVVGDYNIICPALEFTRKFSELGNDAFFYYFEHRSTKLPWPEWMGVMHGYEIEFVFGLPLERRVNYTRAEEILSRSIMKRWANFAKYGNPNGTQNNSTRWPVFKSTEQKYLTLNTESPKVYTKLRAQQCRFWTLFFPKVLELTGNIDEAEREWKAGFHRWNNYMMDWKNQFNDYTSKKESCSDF
T2 sequence (O42275 whole entry): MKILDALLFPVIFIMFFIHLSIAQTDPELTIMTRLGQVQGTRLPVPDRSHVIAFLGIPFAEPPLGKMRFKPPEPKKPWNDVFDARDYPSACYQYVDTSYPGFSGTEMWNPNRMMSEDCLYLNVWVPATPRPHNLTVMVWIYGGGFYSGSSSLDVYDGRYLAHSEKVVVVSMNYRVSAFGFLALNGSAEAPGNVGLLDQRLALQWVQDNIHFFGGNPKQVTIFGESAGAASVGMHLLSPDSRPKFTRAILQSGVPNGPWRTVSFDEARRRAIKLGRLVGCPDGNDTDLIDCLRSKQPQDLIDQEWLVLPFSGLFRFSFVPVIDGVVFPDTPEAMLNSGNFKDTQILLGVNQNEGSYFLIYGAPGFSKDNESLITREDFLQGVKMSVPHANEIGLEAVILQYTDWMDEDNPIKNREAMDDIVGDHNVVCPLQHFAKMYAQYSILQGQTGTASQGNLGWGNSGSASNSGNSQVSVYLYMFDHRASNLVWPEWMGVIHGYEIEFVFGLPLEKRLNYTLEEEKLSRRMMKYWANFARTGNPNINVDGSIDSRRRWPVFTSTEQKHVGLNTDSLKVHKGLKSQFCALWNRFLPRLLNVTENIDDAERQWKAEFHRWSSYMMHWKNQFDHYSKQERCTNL

Usually IC50 stands for the point on the concentration scale where inhibition reaches its midpoint. As usually defined, the inhibition is the share of the control response that was lost under treatment. A high value points to a strong effect. As for `COc1cc(/C=C/C(=O)N2CCC(Cc3ccccc3)CC2)ccc1OCCCCN1CCN(c2ccccn2)CC1`, the IC50 came out at 67.2 µM in experiment [1], 11.2 µM in experiment [2], 48.6 µM in experiment [4] and 1.62 µM in experiment [6]. In addition, the inhibition in experiment [3] was found to be 49.8%. Besides, the Activity in [5] came to 0.4 equiv. The Ratio IC50 in [7] turned out to be 6.9.

`COc1cc(/C=C/C(=O)N2CCC(Cc3ccccc3)CC2)ccc1OCCCN1CCc2ccccc2C1`: the IC50 was 1.89 µM in experiment [1], 2.21 µM in experiment [2], 2.28 µM in [4] and 0.12 µM in experiment [6]. Besides, the inhibition in experiment [3] worked out at 55.6%. The Activity in experiment [5] turned out to be 0.51 equiv. Besides, the Ratio IC50 in [7] was determined as 18.4.

As for `COc1cc(/C=C/C(=O)N2CCC(Cc3ccccc3)CC2)ccc1OCCCCCN1CCc2ccccc2C1`, the IC50 in [1] was 3.21 µM; in experiment [2], 4.33 µM; in [4], 11.4 µM; in experiment [6], 0.31 µM. In addition, the inhibition in [3] stood at 50.7%. Besides, the Activity in [5] was 0.47 equiv. In [7], the Ratio IC50 came out at 14.

In the case of `COc1cc(/C=C/C(=O)N2CCC(Cc3ccccc3)CC2)ccc1OCCCCCN1CCN(c2ccccn2)CC1`, the half-inhibitory concentration (IC50) in experiment [1] turned out to be 58.5 µM; in experiment [2], 9.12 µM; in experiment [4] it was 57.3 µM; in experiment [6] it was 1.52 µM. This compound also returned an inhibition in [3] of 51.5%. The Activity in [5] was 0.45 equiv. Moreover, the Ratio IC50 in experiment [7] stood at 6.

Consider `COc1cc(/C=C/C(=O)N2CCC(Cc3ccccc3)CC2)ccc1OCCCN1CCN(c2ncccn2)CC1`, for which the half-inhibitory concentration (IC50) in [1] is 93.5 µM; in [2], 12.6 µM; in experiment [4], 45.4 µM; in experiment [6] it was 5.12 µM. In experiment [3], the inhibition was determined as 46.9%. The Activity in experiment [5] is 0.41 equiv. For the same compound, the Ratio IC50 in experiment [7] worked out at 2.5.

For `COc1cc(/C=C/C(=O)N2CCC(Cc3ccccc3)CC2)ccc1OCCCCCN1CCN(Cc2ccccc2)CC1`, the IC50 in experiment [1] came to 79.8 µM; in experiment [2], 2.62 µM; in experiment [4] it was 61.5 µM; in experiment [6], 2.23 µM. Further, the inhibition in experiment [3] was 55.9%. The Activity in experiment [5] was found to be 0.66 equiv. Also, in experiment [7], the Ratio IC50 came to 1.2.

Regarding `COc1cc(/C=C/C(=O)N2CCC(Cc3ccccc3)CC2)ccc1OCCCCN1CCN(Cc2ccccc2)CC1`, the concentration for half-maximal inhibition (IC50) turned out to be 56 µM in experiment [1], 2.53 µM in experiment [2], 41.3 µM in experiment [4] and 0.39 µM in experiment [6]. Further, in experiment [3], the inhibition is 54.6%. In addition, the Activity in experiment [5] turned out to be 0.67 equiv. Also, the Ratio IC50 in [7] came to 6.5.

For `COc1cc(/C=C/C(=O)N2CCC(Cc3ccccc3)CC2)ccc1OCCCCCCN1CCc2ccccc2C1`, the IC50 in [1] came out at 21.5 µM; in experiment [2] it was 9.32 µM; in experiment [4], 3.47 µM; in experiment [6], 0.88 µM. The same compound displayed an inhibition in experiment [3] of 54.7%. The Activity in experiment [5] amounted to 0.49 equiv. The Ratio IC50 in experiment [7] came out at 10.6.

`COc1cc(/C=C/C(=O)N2CCC(Cc3ccccc3)CC2)ccc1OCCCCCN1CCN(c2ncccn2)CC1`: the IC50 in [1] turned out to be 30.6 µM; in experiment [2], 5.81 µM; in [4] it was 45.3 µM; in [6] it was 2.34 µM. The compound further had an inhibition in experiment [3] of 39.7%. In [5], the Activity was found to be 0.46 equiv. The Ratio IC50 in [7] amounted to 2.5.

For the compound `COc1cc(/C=C/C(=O)N2CCC(Cc3ccccc3)CC2)ccc1OCCCCN1CCN(c2ncccn2)CC1`, the IC50 in experiment [1] is 44.3 µM; in experiment [2], 12.4 µM; in [4], 56.2 µM; in experiment [6], 1.56 µM. Besides, in experiment [3], the inhibition came to 46%. The Activity in experiment [5] came to 0.43 equiv. In [7], the Ratio IC50 was found to be 7.9.

As to `COc1cc(/C=C/C(=O)N2CCC(Cc3ccccc3)CC2)ccc1OCCCCCCN1CCN(c2ccccn2)CC1`, the half-maximal inhibitory concentration (IC50) in experiment [2] stood at 15.6 µM; in [4], 6.9 µM; in experiment [6], 0.95 µM. The inhibition in experiment [3] worked out at 49.9%. The Activity in experiment [5] amounted to 0.38 equiv. Moreover, testing at 25 µM in experiment [8] gave an inhibition of 18.5%. The Ratio IC50 in experiment [7] came to 16.4.

Take `COc1cc2c(cc1OC)C(=O)C(CC1CCN(Cc3ccccc3)CC1)C2` (configuration not stated) [DONEPEZIL]: 4.42 µM corresponded to half-maximal inhibition in [4] (IC50). This lies in the single-digit micromolar range.

Consider `COc1cc(/C=C/C(=O)N2CCC(Cc3ccccc3)CC2)ccc1O`, for which, in experiment [9], the inhibition at 25 µM was < 5%. For the same compound, the inhibition in experiment [3] turned out to be 65.9%. In addition, the Activity in [5] turned out to be 1.2 equiv. For the same compound, the concentration for half-maximal inhibition (IC50) in [6] is 5.7 µM.

Turning to `COc1cc(/C=C/C(=O)N2CCC(Cc3ccccc3)CC2)ccc1OCCCCCCN1CCN(c2ncccn2)CC1`, the values for the concentration for half-maximal inhibition (IC50) in [2], in experiment [4] and in experiment [6] were 13.4 µM, 68.6 µM and 0.68 µM, respectively. This compound also had an inhibition in [3] of 42%. Also, in [5], the Activity turned out to be 0.51 equiv. For the same compound, the inhibition at 25 µM in experiment [8] turned out to be 15.2%. Also, in experiment [7], the Ratio IC50 came out at 19.7.

Consider `COc1cc(/C=C/C(=O)N2CCC(Cc3ccccc3)CC2)ccc1OCCCCCCN1CCN(Cc2ccccc2)CC1`, for which the IC50 in [1] was 73.2 µM; in [2] it was 4.83 µM; in experiment [4] it was 50.6 µM; in [6] it was 2.2 µM. In experiment [3], the inhibition was 51.1%. Moreover, in experiment [5], the Activity is 0.73 equiv. Further, in [7], the Ratio IC50 is 2.2.

For the compound `COc1cc(/C=C/C(=O)N2CCC(Cc3ccccc3)CC2)ccc1OCCCN1CCN(Cc2ccccc2)CC1`, the IC50 in experiment [1] worked out at 65 µM; in [2], 8.4 µM; in experiment [4], 41.2 µM; in experiment [6], 1.22 µM. Also, the inhibition in experiment [3] came to 50.3%. In experiment [5], the Activity was determined as 0.7 equiv. In experiment [7], the Ratio IC50 was determined as 6.9.

Regarding `COc1cc(/C=C/C(=O)N2CCC(Cc3ccccc3)CC2)ccc1OCCCN1CCN(c2ccccn2)CC1`, the 50% inhibitory concentration (IC50) was determined as 75.3 µM in experiment [1], 10.4 µM in [2], 62.1 µM in experiment [4] and 0.86 µM in experiment [6]. The compound further had an inhibition in [3] of 36.3%. The Activity in [5] was 0.47 equiv. For the same compound, in [7], the Ratio IC50 was determined as 12.1.

Regarding `COc1cc(/C=C/C(=O)O)ccc1O` [FERULATE], in [9], the inhibition at 25 µM is < 5%. The Activity in experiment [5] was 1.1 equiv.
